Data: US7943128B2, “Anti-microbial compositions comprising a cationic peptide and a glycylglycine endopeptidase” (priority 2006, dated 2011)
Positions of bridges follow the written chain, without caps; N, C: chain ends. No end group written: not given here.

Tests used:
[1] = system: Staphylococcus aureus MRSA252 and Staphylococcus aureus MSSA476; assay: Impregnated dried paper disks on TSA plates, zones of inhibition; type: cell-based; conditions: none at lower amounts
Procedure: Sterile Whatman paper disks were impregnated with ranalexin (0.5, 1, 2, 5, 10 or 20 μg), with lysostaphin (0.1, 0.2, 0.5, 1, 2 or 5 μg), a combination of 1 μg lysostaphin and ranalexin (0.5, 1, 2, 5, 10 or 20 μg), or a combination of 10 μg ranalexin and lysostaphin ([…], 0.5, 1, 2 or 5 μg). The paper disks were allowed to dry overnight and then stored at −20° C. until required.
Cultures of Staphylococcus aureus MRSA252 and Staphylococcus aureus MSSA476 were grown to mid-log phase (OD600 0.6-0.9) and diluted to 0.6 if necessary. 150 μl of the culture was then spread onto TSA (Tryptone Soya Agar; Oxoid, Basingstoke, UK) plates and allowed to dry. An impregnated paper disk prepared as described above was placed centrally on the agar plates. Plates were incubated for 20 hours at 37° C. before visual assessment of the zones of inhibition (see FIG. 8) which were visible as clear areas around the disks.

MRSA252 = assay: Bactericidal assay, survivors after 30 minute exposure in TSB broth; type: cell-based, Staphylococcus aureus
Procedure: MRSA252 in TSB broth was exposed for 30 mins to either: increasing concentrations (0, 1, 2, 4, 6, 8 and 10 μg/ml) of ranalexin alone (filled squares); increasing concentrations (0.0, 0.01, 0.02, 0.04, 0.06, 0.08, 0.1 μg/ml) of lysostaphin alone (filled circles); or a combination of 8 μg/ml ranalexin with increasing concentrations (0.0, 0.01, 0.02, 0.04, 0.06, 0.08, 0.1 μg/ml) of lysostaphin. Total cell numbers, or survivors, after a 30 minute exposure to each of the above conditions were determined by serial dilution and plating on TSB agar. Survivors were determined after 24 hours incubation of the TSB plates at 37° C. and expressed as the log of colony forming units per ml of broth. The arrows on FIG. 7 indicate that the numbers of survivors were less than the minimum detectable by this method.

[2] = system: Staphylococcus aureus MRSA252; assay: Microtitre plate growth inhibition in TSB, 48 hours, turbidity; type: cell-based; conditions: for concentration needed for inhibition, compound alone: MRSA252, 48 hours, in the absence of the other compound
Procedure: (§1) Staphylococcus aureus strains MSSA476 (left) and MRSA252 (right) were cultivated in TSB (Tryptone Soya Broth; Oxoid Basingstoke, UK) to mid-exponential phase. Cultures were then diluted in fresh medium to a starting optical density of 600 nm of 0.001 (approximately 1.0×10^6 cells/ml). Growth of 100 μl volume cultures was measured in 96-well culture plates using TSB as control for 37° C. for 48 hours without shaking in the presence of 0 μg ranalexin/ml medium to 50 μg/ml, increasing stepwise by 5 μg/ml. 8 samples were cultivated for each concentration of ranalexin and to each such sample a different concentration of lysostaphin was added from 0 μg/ml to 1.05 μg/ml in steps of 0.15 μg/ml. The antibacterial activity was measured by reduced turbidity measured by optical density by scanning on an Image Scanner (GE Healthcare UK Ltd) using Image Master Labscan v.3 software. The concentration of ranalexin is indicated above the respective column, each well of a column having the same ranalexin concentration. The wells of each row contain lysostaphin at a final concentration of 0 μg lysostaphin per ml medium to 1.05 μg/ml (as indicated on left), increasing stepwise by 0.15 μg/ml. For S. aureus MSSA476 cultivated in the absence of lysostaphin, ranalexin provides an inhibitory effect at concentrations above 30 μg/ml medium (typically 35 to 40 μg/ml). […] The combination of ranalexin and lysostaphin reduces the necessary amount of each of the compounds by providing a synergistic antimicrobial effect.
(§2) Staphylococcus aureus strains MSSA476 (left) and MRSA252 (right) were cultivated in TSB medium as described in Example 1, except for the narrower concentration ranges of ranalexin and lysostaphin. Ranalexin is provided at concentrations of 0 μg/ml, 0.5 μg/ml and 1 μg/ml to 10 μg/ml, increasing stepwise by 1 μg/ml medium, and lysostaphin concentrations of 0 μg/ml to 0.2 μg/ml, with intermediate concentrations of 0.01 μg/ml, 0.025 μg/ml, 0.05 μg/ml, 0.075 μg/ml, 0.1 μg/ml and 0.15 μg/ml as indicated in FIG. 2.

[3] = system: Staphylococcus aureus strains MSSA476 and MRSA252; assay: Microtitre plate growth inhibition with dermaseptin s3(1-16) or magainin 2 and lysostaphin (Examples 3, 4); type: cell-based; conditions: either strain, up to 50 μg ml^−1
[4] = system: Staphylococcus aureus MSSA476; assay: Microtitre plate growth inhibition in TSB, 48 hours, turbidity; type: cell-based
Procedure: as §1, §2

| Substance | zone of inhibition, agent alone ([1]; disk with 20 μg ranalexin) | effect on viability (MRSA252; ranalexin alone up to 10 μg ml^−1, 30 minutes) | concentration needed for inhibition, compound alone [2] | inhibitory effect of the peptide alone [3] | zone of inhibition, agent alone ([1]; disk with 5 μg lysostaphin) | reduction in numbers (MRSA252; 0.06 μg ml^−1 lysostaphin, 30 minutes) | effect on viable cell numbers (MRSA252; lysostaphin alone, 0.01 to 0.1 μg ml, 30 minutes) | MIC ([2]; MRSA252, lysostaphin alone) | concentration providing an inhibitory effect, compound alone ([4]; MSSA476, 48 hours, in the absence of the other compound) | MIC ([4]; MSSA476, lysostaphin alone) |
| --- | --- | --- | --- | --- | --- | --- | --- | --- | --- | --- |
| ranalexin: 20 amino acid bullfrog peptide FLGGLIKIVPAMICAVTKKC (SEQ ID NO 1) with a single intramolecular disulphide bond (FLGGLIKIVPAMICAVTKKC; disulfide 14-20 (inferred); listed as Rana catesbeiana) | some minimal inhibition | no detectable effect on viability | above 40 μg/ml | – | – | – | – | – | – | – |
| Magainin 2 | – | – | – | little inhibitory effect | – | – | – | – | – | – |
| lysostaphin: 27 kDa zinc-dependent metallopeptidase (glycylglycine endopeptidase) secreted by Staphylococcus simulans and S. staphylolyticus | – | – | above 0.45 μg/ml | – | some minimal inhibition | 0.5 log | minor decrease in viable cell numbers | approximately 0.45 μgml | above 0.75 μg/ml | approximately 0.75 μg/ml |
